{"source": "paper PMC5546478", "about": "(Oncotarget, 2017)", "key": {"mutant IDH1": {"tested_on": "mutant IDH1", "conditions": "cited from earlier work"}, "WT IDH1": {"biological_target": "T1, WT IDH1 (Homo sapiens, UniProt O75874)", "T1 construct": "made in house", "T1 sequence (O75874 whole entry)": "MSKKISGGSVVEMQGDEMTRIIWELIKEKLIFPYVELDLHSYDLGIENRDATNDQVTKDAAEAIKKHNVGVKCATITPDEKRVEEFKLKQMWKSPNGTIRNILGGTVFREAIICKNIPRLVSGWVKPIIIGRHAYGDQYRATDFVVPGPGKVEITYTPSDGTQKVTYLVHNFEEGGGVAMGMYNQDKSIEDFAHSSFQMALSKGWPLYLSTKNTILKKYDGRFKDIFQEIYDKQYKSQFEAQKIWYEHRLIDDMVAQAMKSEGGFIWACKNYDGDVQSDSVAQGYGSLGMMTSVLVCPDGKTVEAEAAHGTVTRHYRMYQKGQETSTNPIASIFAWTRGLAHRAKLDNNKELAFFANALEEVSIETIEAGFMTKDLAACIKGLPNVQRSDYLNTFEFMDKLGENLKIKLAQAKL", "experiment": "In vitro enzyme inhibition assay, WT IDH1 (NADPH production)", "type": "biochemical", "conditions": "for IC50 / IC50 for enzyme activities, WT: n.p = no clear inhibitory detected; for IC50: read-out: IC50 for enzyme activities, WT", "procedure": "For inhibition assay, firstly, triplicate samples of compounds were incubated with the protein for 5 min."}, "HT1080 xenograft": {"tested_on": "HT1080 xenograft", "experiment": "Antitumor efficacy in HT1080 xenograft mouse model", "type": "in vivo, CB-17/Icr-scid mice", "conditions": "for Tumor weight: after 2 weeks' treatment, control 2.32 ± 0.93 g; for Tumor volume: model 1879.61±244.35", "excerpt": "In the xenograft model, HT1080 cells were inoculated subcutaneously into the right flank of male CB-17/Icr-scid mice."}, "[1]": {"conditions": "50 and 100 mg/kg per day via gavage", "method": "After 2 weeks’ treatment, all mice were then scarified and the average tumor weights were calculated.\nCB-17/Icr-scid mice (male, 4 weeks old) were purchased from HFK Bioscience CO., LTD (Beijing, China). The animals were maintained under ‘specific pathogen-free’ conditions according to the guidelines established by Research Animal Resources, Laboratory Animal Center, Huazhong University of Science and Technology (Wuhan, China). […] HT1080 cells were inoculated subcutaneously (2 × 10^6 cells) into the right flank of each mouse in the three groups. Treatment was started after seven days of cells injection. […] For the vehicle group, 200 μL normal saline was administered to each mouse every day by i.g. The duration of the animal study was 22 days for HT1080 cells. The tumor volume was calculated from measurements of 3 diameters of the individual tumor based on the following formula: tumor volume (mm^3) = (length × width × height × 0.52). The mice were monitored until tumors reached 1 cm^3 total volume, at which time the mice were euthanized and the tumors were extracted."}, "[2]": {"tested_on": "mutant IDH1 (D-2HG production)", "experiment": "D-2HG concentrations in tumors and serum of HT1080 xenograft mice", "type": "in vivo, CB-17/Icr-scid mice", "conditions": "for percentage inhibition of D-2HG production in tumor tissue: normalized to control group; for R-2HG level in serum: model 5.97 ±2.58; for R-2HG level in tumor tissue: model 364.01 ±118.43"}, "H3K9me3 in HT1080 cells [3]": {"tested_on": "H3K9me3 in HT1080 cells", "experiment": "Immunocytochemical staining of H3K9me3", "type": "cell-based, human", "method": "We seeded the cells at 2×10^5 per well (Lab-Tek II chamber slide, Nalgen Nunc International, Naperville, IL). 48 hours after incubation, cells were fixed with PBS (−) containing 4% paraformaldehyde for 15 minutes, and rendered permeable with PBS (−) containing 0.1% Triton X-100 at 4 °C for 2.5 minutes. Subsequently, the cells were covered with 3% bovine serum albumin in PBS (−) at 4 °C for 12 hours to block nonspecific hybridization followed by incubation with an H3K9me3 antibody diluted at 1:100. After washing with PBS (−), the cells were stained by an Alexa 594-conjugated anti-mouse secondary antibody (Molecular Probes, Eugene, OR) diluted at 1: 1,000. Nuclei were counterstained with (DAPI). Fluorescent images were obtained under a TCS SP2 AOBS microscope (Leica, Tokyo, Japan)."}, "[4]": {"tested_on": "H3K9me3 in HT1080 tumor tissue", "experiment": "Immunohistochemistry for H3K9me3 in xenograft tumor tissues", "type": "in vivo, CB-17/Icr-scid mice", "conditions": "clomifene treated groups (50, 100 mg/kg) vs vehicle", "method": "We then examined D-2HG concentrations in tumors and serum.\nHT1080 cells were inoculated subcutaneously (2 × 10^6 cells) into the right flank of each mouse in the three groups. Treatment was started after seven days of cells injection. […] For the vehicle group, 200 μL normal saline was administered to each mouse every day by i.g. The duration of the animal study was 22 days for HT1080 cells. The tumor volume was calculated from measurements of 3 diameters of the individual tumor based on the following formula: tumor volume (mm^3) = (length × width × height × 0.52). The mice were monitored until tumors reached 1 cm^3 total volume, at which time the mice were euthanized and the tumors were extracted. The tumors were dissected and sent for immunohistochemical analysis and western blot analysis."}, "H3K9me3 in HT1080 cells [5]": {"tested_on": "H3K9me3 in HT1080 cells", "experiment": "Histone methylation H3K9me3 by western blot", "type": "cell-based, human", "conditions": "48 hours", "method": "The harvested cells were lysed with lysis buffer (50 mM Tris-HCl (pH 7.4), 150 mM NaCl, 1 mM EDTA, 1 mM EGTA, 10 mg/mL aprotinin, 10 mg/mL leupeptin, 5 mM phenylmethanesulfonyluoride (PMSF), 1 mM dithiolthreitol (DTT) containing 1% Triton X-100). Insoluble debris was removed by centrifugation at 13000 rpm for 20 minutes, and the content of protein was determined using Bradford reagent (Bio-Rad, USA). Lysate protein (20-40 μg) was subjected to 12% SDS-PAGE and electrophoretically transferred to polyvinylidene difluoride membranes (PVDF) (Millipore, USA). The membranes were blocked with 5% non-fat milk for 1 h and then incubated with the respective specific primary antibody at 4 °C overnight. Protein bands were visualized using an enhanced chemiluminescence reagent (ECL Plus) (GE Healthcare, USA) after hybridization with a HRP conjugated secondary antibody. Band density was quantified using the Image J software program (NIH)."}, "HT1080 cells": {"tested_on": "HT1080 cells", "experiment": "Flow cytometric analysis for apoptosis (Annexin V/PI)", "type": "cell-based, human", "conditions": "control 2%", "procedure": "Then the cells were harvested, washed twice with ice-cold PBS, and mixed in 100 μL of 1 × binding buffer (10 mM HEPES/NaOH, pH 7.4, 140 mM NaCl, 2.5 mM CaCl2). After culturing for 15 min at room temperature in Annexin-V/PI (Nanjing KeyGen Biotech. Inc.) double staining liquid, the cells were examined by flow cytometry (BD Biosciences, FACSCalibur)."}}, "note": "“Also recorded” adds a separate entry of the source. Where a name gives a salt, the structure may show the parent alone. Read-outs that look alike come from different tables or passages of the source."}
{"smiles": "CC(C)(C)CC(C)(C)c1cc(Cn2ccnc2)c(O)c(Cn2ccnc2)c1", "note": "[2,6-bis (1H-imidazol-1-ylmethyl)-4-(2,4,4-trimethylpentan-2-yl) phenol]", "values": [{"measurement": "manner of inhibition of mutant IDH1", "setting": "mutant IDH1; ligand of crystal structure 4UMX, binds allosteric site", "result": "non-competitive and allosteric inhibitor"}]}
{"smiles": "Cc1ccccc1C(C(=O)NC1CCCCC1)N(C(=O)Cn1ccnc1C)c1cccc(F)c1", "note": "(centres unmarked) [AGI-5198]", "values": [{"measurement": "kinetic mechanism with respect to NADPH", "setting": "mutant IDH1; mutant IDH1", "result": "uncompetitive"}, {"measurement": "kinetic mechanism with respect to α-KG", "setting": "mutant IDH1; mutant IDH1", "result": "competitive inhibitor"}, {"measurement": "IC50", "setting": "WT IDH1", "result": "> 200", "unit": "µM"}]}
{"smiles": "COc1ccc(-c2ccc3cc(C(=O)O)ccc3c2)cc1C12CC3CC(CC(C3)C1)C2", "note": "[Adapalene]", "values": [{"measurement": "IC50 for enzyme activities, WT", "setting": "WT IDH1", "result": "n.p"}]}
{"smiles": "CO[C@@]1(NC(=O)Cc2cccs2)C(=O)N2C(C(=O)O)=C(COC(N)=O)CS[C@@H]21", "note": "[Cefoxitin sodium]", "values": [{"measurement": "IC50", "setting": "WT IDH1", "result": "> 200", "unit": "µM"}]}
{"smiles": "CCN(CC)CCOc1ccc(C(=C(Cl)c2ccccc2)c2ccccc2)cc1", "note": "[Clomifene]", "values": [{"measurement": "percentage inhibition of tumor volume", "setting": "HT1080 xenograft; 50 mg/kg per day via gavage", "result": 51.71, "unit": "%"}, {"measurement": "percentage inhibition of tumor weight", "setting": "HT1080 xenograft; 50 mg/kg per day via gavage", "result": 38.36, "unit": "%"}, {"measurement": "Tumor weight", "setting": "HT1080 xenograft; 50 mg/kg per day via gavage", "result": "1.43 ± 0.42", "unit": "g"}, {"measurement": "percentage inhibition of tumor weight", "setting": "HT1080 xenograft; 50 mg/kg per day via gavage, listed as clomifene", "result": "about 60%"}, {"measurement": "Tumor volume", "setting": "HT1080 xenograft; 50 mg/kg per day via gavage", "result": "907.73±176.63", "unit": "mm3"}, {"measurement": "percentage inhibition of tumor volume", "setting": "HT1080 xenograft; 100 mg/kg per day via gavage", "result": 65.80, "unit": "%"}, {"measurement": "percentage inhibition of tumor weight", "setting": "HT1080 xenograft; 100 mg/kg per day via gavage", "result": 59.48, "unit": "%"}, {"measurement": "Tumor weight", "setting": "HT1080 xenograft; 100 mg/kg per day via gavage", "result": "0.94 ± 0.61", "unit": "g"}, {"measurement": "Tumor volume", "setting": "HT1080 xenograft; 100 mg/kg per day via gavage", "result": "642.91±127.02", "unit": "mm3"}, {"measurement": "tumor growth of HT1080-bearing mice", "setting": "HT1080 xenograft; oral 100 mg/kg and 50 mg/kg per day", "result": "significantly suppressed"}, {"measurement": "effect on mouse body weight", "setting": "[1]", "result": "no effect"}, {"measurement": "effect on mouse body weight", "setting": "[1]; listed as clomifene", "result": "no obvious side effects on animals’ growth"}, {"measurement": "percentage inhibition of R-2HG in serum", "setting": "[2]; 50 mg/kg", "result": 51.59, "unit": "%"}, {"measurement": "percentage inhibition of D-2HG production in tumor tissue", "setting": "[2]; 50 mg/kg", "result": 23.81, "unit": "%"}, {"measurement": "R-2HG level in serum", "setting": "[2]; 50 mg/kg", "result": "2.89 ± 1.06", "unit": "µM"}, {"measurement": "R-2HG level in tumor tissue", "setting": "[2]; 50 mg/kg", "result": "277.34 ± 78.03", "unit": "µg/g"}, {"measurement": "percentage inhibition of D-2HG production in tumor tissue", "setting": "[2]; 100 mg/kg", "result": 57.38, "unit": "%"}, {"measurement": "R-2HG level in serum", "setting": "[2]; 100 mg/kg", "result": "1.47 ± 1.38", "unit": "µM"}, {"measurement": "R-2HG level in tumor tissue", "setting": "[2]; 100 mg/kg", "result": "155.12 ± 74.34", "unit": "µg/g"}, {"measurement": "mutant IDH1-mediated H3K9me3", "setting": "H3K9me3 in HT1080 cells [3]", "result": "substantially and dose-dependently decreased"}, {"measurement": "expressions of H3K9me3 in tumor tissues", "setting": "[4]", "result": "substantially reduced"}, {"measurement": "level of histone methylation (H3K9me3)", "setting": "H3K9me3 in HT1080 cells [5]", "result": "significantly reduced; also recorded: markedly decrease"}, {"measurement": "apoptotic death", "setting": "HT1080 cells; 10 μM", "result": 12.88, "unit": "%"}, {"measurement": "apoptotic death", "setting": "HT1080 cells; 20 μM", "result": 23.61, "unit": "%"}, {"measurement": "Effect on WT IDH1", "setting": "WT IDH1; at 200 μM", "result": "did not obviously alter"}, {"measurement": "IC50", "setting": "WT IDH1", "result": "> 200", "unit": "µM"}]}
{"smiles": "CN(C)[C@@H]1C(O)=C(C(N)=O)C(=O)[C@@]2(O)C(O)=C3C(=O)c4c(O)ccc(Cl)c4[C@@H](O)[C@H]3C[C@@H]12", "note": "[Demeclocycline]", "values": [{"measurement": "IC50 for enzyme activities, WT", "setting": "WT IDH1", "result": "n.p^e"}]}
{"smiles": "OC(Cn1cncn1)(Cn1cncn1)c1ccc(F)cc1F", "note": "[Fluconazole]", "values": [{"measurement": "IC50 for enzyme activities, WT", "setting": "WT IDH1", "result": "n.p"}]}
{"smiles": "C=C1c2cccc(O)c2C(=O)C2=C(O)[C@]3(O)C(=O)C(C(N)=O)=C(O)[C@@H](N(C)C)[C@@H]3[C@@H](O)[C@H]12", "note": "[Metacycline]", "values": [{"measurement": "IC50 for enzyme activities, WT", "setting": "WT IDH1", "result": "n.p"}]}
{"smiles": "CCCNCC(O)COc1ccccc1C(=O)CCc1ccccc1", "note": "(centres unmarked) [Propafenone Hydrochloride]", "values": [{"measurement": "IC50 for enzyme activities, WT", "setting": "WT IDH1", "result": "n.p"}]}
{"smiles": "O=C(NC[C@H]1CN(c2ccc(N3CCOCC3=O)cc2)C(=O)O1)c1ccc(Cl)s1", "note": "[Rivaroxaban]", "values": [{"measurement": "IC50", "setting": "WT IDH1", "result": "> 200", "unit": "µM"}]}
{"smiles": "CN(C)c1cc(NC(=O)CNC(C)(C)C)c(O)c2c1C[C@H]1C[C@H]3[C@H](N(C)C)C(O)=C(C(N)=O)C(=O)[C@@]3(O)C(O)=C1C2=O", "note": "[Tigecycline]", "values": [{"measurement": "IC50 for enzyme activities, WT", "setting": "WT IDH1", "result": "n.p"}]}
